{"source": "patent US10568933B2", "about": "“Beta-casein A2 and blood glucose levels” (THE A2 MILK COMPANY LIMITED, priority 2013, dated 2020)", "tested_on": "SH-SY5Y cells", "experiment": "Effect of BCM-7 on DNA methylation levels (MBD-seq)", "format": "cell-based, human", "settings": "1 μM, 4 hours", "method": "Shifts in global DNA methylation patterns induced by BCM-7 were investigated using methyl-CpG binding domain (MBD) protein-enriched genome sequencing (MBD-seq) as described previously (Trivedi M., et al., Mol. Pharm. 2014), whereas mRNA translation microarray data was obtained using an Agilent V3 microarray chip, from non-treated control SH-SY5Y cells and cells treated for 4 hours with 1 μM BCM-7.\nGenomic DNA was extracted from samples using the Easy DNA kit (Invitrogen K1800-01) using the appropriate protocol for cell lines. Fragmentation was performed on a Covaris S2 ultrasonicator using the following settings: duty cycle 10%, intensity 5, 200 cycles per burst during 200 sec. Fragments were obtained having an average length of 200 bp. The power mode is frequency sweeping, temperature 6-8° C., water level 12. […] DNA with an input from […] was analysed on the Agilent 2100 using a DNA 1000 chip. […] The concentrations of fragmented and captured DNA were determined on a Fluostar Optima plate reader with the Quant-iT PicoGreen dsDNA Assay Kit (Invitrogen P7589) at 480/520 nm. […]\nThe Illumina library amplification index protocol was used with the following alterations: 22 μl DNA was used and performed 21 cycles run. […] 1 μl was applied to an Agilent 2100 HS DNA chip and the concentration was determined by smear analysis on the Agilent 2100. […]"}
{"substance": "beta-casomorphin-7 [BCM-7]", "values": [{"measurement": "Epigenetic status (DNA methylation) of genes responsible for glucose metabolism, synthesis and glucose homeostasis", "result": "altered"}]}
